PubChem BioAssay AID296 (DTP/NCI, 2004)
“And” between values parts separate entries of the source, which are not always exact repeats. Identical values can stand only once. Results filed as inconclusive are left out.

System: MX-1 breast xenograft, nude mice, tumor weight T/C
Assay: NCI In Vivo Anticancer Drug Screen. Data for tumor model Human Mammary Carcinoma MX-1 Xenograft (intrarenal inoculation) in NU/NU Swiss (nude) mice
Settings: endpoint: mean tumor weight change, higher = larger tumour
How it was run: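 Read-out: treated (T) over vehicle control (C) ratio of survival or tumor size. Dosing in animals carrying the transplanted tumor.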

[1] = dose: 150.0 mg/kg/injection, schedule: Q04DX003 (sc), vehicle: saline with Tween-80
[2] = dose: 300.0 mg/kg/injection, schedule: Q04DX003 (sc), vehicle: saline with Tween-80
[3] = dose: 1200.0 mg/kg/injection, schedule: Q04DX003 (sc), vehicle: saline with Tween-80
[4] = dose: 600.0 mg/kg/injection, schedule: Q04DX003 (sc), vehicle: saline with Tween-80
[5] = dose: 2400.0 mg/kg/injection, schedule: Q04DX003 (sc), vehicle: saline with Tween-80

ClCc1ccc2ccccc2n1
T/C [1]: 98 % of control | T/C [2]: 98 % of control | T/C [3]: 116 % of control

O=CC(CO)CC(C=O)n1cnc2c(=O)[nH]cnc21 (centres undefined)
T/C (dose: 150.0 mg/kg/injection, schedule: Q04DX003 (ip), vehicle: saline): 62 % of control | T/C (dose: 300.0 mg/kg/injection, schedule: Q04DX003 (ip), vehicle: saline): 57 % of control | T/C (dose: 600.0 mg/kg/injection, schedule: Q04DX003 (ip), vehicle: saline): 30 % of control

CC1OC1C(=O)C1(O)C(C)C(O)C23OC2(C(O)c2c(O)cccc2C3=O)C1O (centres undefined)
T/C (dose: 12.0 mg/kg/injection, schedule: Q04DX003 (sc), vehicle: Klucel (hydroxypropylcellulose) (HPC)): 102 % of control | T/C (dose: 24.0 mg/kg/injection, schedule: Q04DX003 (sc), vehicle: Klucel (hydroxypropylcellulose) (HPC)): 83 % of control | T/C (dose: 48.0 mg/kg/injection, schedule: Q04DX003 (sc), vehicle: Klucel (hydroxypropylcellulose) (HPC)): 83 % of control

CN(C)CCOc1ccc2c(c1)C/C(=C/c1ncc([N+](=O)[O-])n1C)C2=O
T/C [2]: 81 % of control | T/C [4]: 68 % of control | T/C [3]: 89 % of control | T/C [5]: 70 % of control

Nc1ccc(C(OC(=O)c2cc3ccccc3c(Cc3c(O)c(C(=O)OC(c4ccc(N)cc4)(c4ccc(N)cc4)c4ccc(N)cc4)cc4ccccc34)c2O)(c2ccc(N)cc2)c2ccc(N)cc2)cc1
T/C (dose: 72.0 mg/kg/injection, schedule: Q04DX003 (sc), vehicle: saline with Tween-80): 97 % of control | T/C (dose: 144.0 mg/kg/injection, schedule: Q04DX003 (sc), vehicle: saline with Tween-80): 104 % of control | T/C (dose: 288.0 mg/kg/injection, schedule: Q04DX003 (sc), vehicle: saline with Tween-80): 87 % of control

O=C(O)C(CSC(c1ccccc1)(c1ccccc1)c1ccccc1)N=Cc1cccs1 (centres undefined)
T/C (dose: 800.0 mg/kg/injection, schedule: Q04DX003 (sc), vehicle: suspension in saline): 67 % of control

c1cc(OCC2CO2)ccc1OCC1CO1 (centres undefined)
T/C [2]: 110 % of control | T/C [4]: 103 % of control | T/C [3]: 92 % of control | T/C [5]: 106 % of control

C[Si](C)(C)n1nnn(-c2ccccc2)c1=O
T/C (dose: 75.0 mg/kg/injection, schedule: Q04DX003 (sc), vehicle: saline with Tween-80): 90 % of control | T/C [1]: 71 % of control | T/C [4]: 91 % of control

OCCN1CCN(CC/C=C2/c3ccccc3Sc3ccc(Cl)cc32)CC1
T/C (dose: 12.5 mg/kg/injection, schedule: Q04DX003 (sc), vehicle: saline): 115 % of control | T/C (dose: 25.0 mg/kg/injection, schedule: Q04DX003 (sc), vehicle: saline): 47 % of control | T/C (dose: 50.0 mg/kg/injection, schedule: Q04DX003 (sc), vehicle: saline): 44 % of control and 51 % of control

Nc1nc(/C=C(/O)c2ccccc2)c2ncn(C3OC(CO)C(O)C3O)c2n1 (centres undefined)
T/C (dose: 200.0 mg/kg/injection, schedule: Q04DX003 (sc), vehicle: distilled water + Tween-80): 97 % of control | T/C (dose: 400.0 mg/kg/injection, schedule: Q04DX003 (sc), vehicle: distilled water + Tween-80): 100 % of control | T/C (dose: 800.0 mg/kg/injection, schedule: Q04DX003 (sc), vehicle: distilled water + Tween-80): 92 % of control | T/C (dose: 1600.0 mg/kg/injection, schedule: Q04DX003 (sc), vehicle: distilled water + Tween-80): 99 % of control

O=C1NC(O)c2ccccc2O1 (centres undefined)
T/C (dose: 300.0 mg/kg/injection, schedule: Q04DX003 (sc), vehicle: suspension in saline): 25 % of control | T/C (dose: 600.0 mg/kg/injection, schedule: Q04DX003 (sc), vehicle: suspension in saline): 30 % of control | T/C (dose: 1200.0 mg/kg/injection, schedule: Q04DX003 (sc), vehicle: suspension in saline): 26 % of control | T/C (dose: 2400.0 mg/kg/injection, schedule: Q04DX003 (sc), vehicle: suspension in saline): 29 % of control

C1CCC2[N-]CC3CCCCC3[N-]CC3CCCCC3[N-]CC3CCCCC3[N-]CC2C1.[Cu] (centres undefined)
T/C (dose: 3.13 mg/kg/injection, schedule: Q01DX010 (sc), vehicle: Klucel (hydroxypropylcellulose) (HPC)): 47 % of control | T/C (dose: 6.25 mg/kg/injection, schedule: Q01DX010 (sc), vehicle: Klucel (hydroxypropylcellulose) (HPC)): 193 % of control | T/C (dose: 12.5 mg/kg/injection, schedule: Q01DX010 (sc), vehicle: Klucel (hydroxypropylcellulose) (HPC)): 178 % of control | T/C (dose: 25.0 mg/kg/injection, schedule: Q01DX010 (sc), vehicle: Klucel (hydroxypropylcellulose) (HPC)): 113 % of control
